The nature of series [1]: Oral bioavailability in Wistar Han rat at 5 mg/kg. The following applies: in vivo; for bioavailability: Wistar Han. In kind it is ADME, organism-based.
Series [2] has as its target T1, Tyrosine-protein kinase BTK (Homo sapiens, UniProt Q06187). Briefly: Inhibition of BTK in human whole blood assessed as reduction in cell surface CD69 expression preincubated for 1 hr followed by stimulation with anti-CD79b for 3 hrs by immunostaining analysis. The series is classed as tissue-based.
The target in series [3] is Tyrosine-protein kinase Fyn (Homo sapiens, UniProt P06241). Description: Inhibition of FYN (unknown origin).
Series [4] addresses Tyrosine-protein kinase Blk (Homo sapiens, UniProt P51451). Description: Inhibition of BLK (unknown origin).
Series [5] concerns the target T1, Tyrosine-protein kinase BTK. Briefly: Inhibition of recombinant full length BTK (unknown origin) expressed in baculovirus infected Sf9 cells using Biotin-EQEDEPEGDYFEWLE-NH2 peptide as substrate incubated for 60 mins followed by further incubation with substrate and ATP for 120 mins by TR-FRET assay. On the technique in general: In TR-FRET formats the signal depends on donor and acceptor labels being close together.

For series [6], the species on record is Homo sapiens. Description: Selectivity index, ratio of IC50 for FGR (unknown origin) to IC50 for recombinant full length BTK (unknown origin) expressed in baculovirus infected Sf9 cells.
Series [7] is filed under the species Homo sapiens. Description: Selectivity index, ratio of IC50 for TEC (unknown origin) to IC50 for recombinant full length BTK (unknown origin) expressed in baculovirus infected Sf9 cells.
The species entered for series [8] is Homo sapiens. Description: Selectivity index, ratio of IC50 for FRK (unknown origin) to IC50 for recombinant full length BTK (unknown origin) expressed in baculovirus infected Sf9 cells.
The species entered for series [9] is Homo sapiens. Briefly: Selectivity index, ratio of IC50 for BLK (unknown origin) to IC50 for recombinant full length BTK (unknown origin) expressed in baculovirus infected Sf9 cells.
Series [10] is filed under the species Homo sapiens. Briefly: Selectivity index, ratio of IC50 for LYNB (unknown origin) to IC50 for recombinant full length BTK (unknown origin) expressed in baculovirus infected Sf9 cells.
Series [11] addresses Receptor tyrosine-protein kinase erbB-4 (Homo sapiens, UniProt Q15303). Briefly: Inhibition of ERBB4 (unknown origin).
Series [12] has as its target Tyrosine-protein kinase CSK (Homo sapiens, UniProt P41240). Briefly: Inhibition of CSK (unknown origin).
For series [13], the species on record is Homo sapiens. Description: Selectivity index, ratio of IC50 for TXK (unknown origin) to IC50 for recombinant full length BTK (unknown origin) expressed in baculovirus infected Sf9 cells.
For series [14], the target named is Proto-oncogene tyrosine-protein kinase Src (Homo sapiens, UniProt P12931). Briefly: Inhibition of SRC (unknown origin).
Series [15] is described as follows: Cmax in Wistar Han rat at 5 mg/kg, po. The following applies: in vivo. The series is classed as ADME, organism-based. The arrangement: route oral, dose 5 mg/kg.
Series [16] is filed under the species Homo sapiens. Description: Selectivity index, ratio of IC50 for ERBB4 (unknown origin) to IC50 for recombinant full length BTK (unknown origin) expressed in baculovirus infected Sf9 cells.
Series [17] is described as follows: Clearance in Wistar Han rat at 2 mg/kg, iv. The following applies: in vivo. The series is classed as ADME, organism-based.
The target in series [18] is Tyrosine-protein kinase Fgr (Homo sapiens, UniProt P09769). Description: Inhibition of FGR (unknown origin).
In series [19] the target is Tyrosine-protein kinase Lyn (Homo sapiens, UniProt P07948). Briefly: Inhibition of LYNB (unknown origin).
The nature of series [20]: Half life in Beagle dog at 1 mg/kg, iv. The series is classed as ADME, organism-based, Canis lupus familiaris. The following applies: in vivo.
A short description of series [21]: Volume of distribution at steady state in Beagle dog at 1 mg/kg, iv. The series is classed as ADME, organism-based, Canis lupus familiaris. The following applies: in vivo, read-out: Vdss.
A short description of series [22]: Tmax in Beagle dog at 2 mg/kg, po. In kind it is ADME, organism-based, Canis lupus familiaris. The following applies: in vivo.
The nature of series [23]: Oral bioavailability in Beagle dog at 2 mg/kg. The series is classed as ADME, organism-based, Canis lupus familiaris. The following applies: in vivo.
Series [24] is described as follows: Cmax in Beagle dog at 2 mg/kg, po. The series is classed as ADME, organism-based, Canis lupus familiaris. Details: route oral, dose 2 mg/kg. The following applies: in vivo.
The nature of series [25]: AUC in Beagle dog at 1 mg/kg, iv. Details: dose 1 mg/kg. The series is classed as ADME, organism-based, Canis lupus familiaris. The following applies: in vivo.
A short description of series [26]: Clearance in Beagle dog at 1 mg/kg, iv. The series is classed as ADME, organism-based, Canis lupus familiaris. The following applies: in vivo.
A further series deals with Rattus norvegicus. Briefly: Antiarthritic activity in Lewis rat model of collagen-induced arthritis assessed as decrease in paw thickness at 1 to 30 mg/kg, po qd and measured for 30 days. The series is classed as functional, organism-based. The following applies: dose mg/kg 1-30, time 30.0 day.

Here are results for 3 molecules from ChEMBL document CHEMBL4725309, “Potent, non-covalent reversible BTK inhibitors with 8-amino-imidazo[1,5-a]pyrazine core featuring 3-position bicyclic ring substitutes” (Bioorg Med Chem Lett, 2020).

pIC50: −log10 of the molar value.

The pIC50 is the negative decadic logarithm of the IC50, by convention in mol/L. For orientation: Cmax means the highest concentration seen after dosing. As a reminder, the clearance is the volume of plasma or blood freed of the substance per unit of time. A lower clearance goes with inefficient removal. Usually bioavailability stands for dose-corrected exposure relative to a reference, in per cent. Read a low bioavailability as poor availability. For orientation: half-life means the time in which the quantity being followed falls by half. Low values mean rapid decline, high ones slow decline. Broadly, the Tmax is the time from dosing to the highest level. As usually defined, the AUC is the area under the concentration-time curve, a measure of exposure. Low readings indicate low exposure, high ones high exposure.

Sequence of Proto-oncogene tyrosine-protein kinase Src (P12931 2-536 limits assumed): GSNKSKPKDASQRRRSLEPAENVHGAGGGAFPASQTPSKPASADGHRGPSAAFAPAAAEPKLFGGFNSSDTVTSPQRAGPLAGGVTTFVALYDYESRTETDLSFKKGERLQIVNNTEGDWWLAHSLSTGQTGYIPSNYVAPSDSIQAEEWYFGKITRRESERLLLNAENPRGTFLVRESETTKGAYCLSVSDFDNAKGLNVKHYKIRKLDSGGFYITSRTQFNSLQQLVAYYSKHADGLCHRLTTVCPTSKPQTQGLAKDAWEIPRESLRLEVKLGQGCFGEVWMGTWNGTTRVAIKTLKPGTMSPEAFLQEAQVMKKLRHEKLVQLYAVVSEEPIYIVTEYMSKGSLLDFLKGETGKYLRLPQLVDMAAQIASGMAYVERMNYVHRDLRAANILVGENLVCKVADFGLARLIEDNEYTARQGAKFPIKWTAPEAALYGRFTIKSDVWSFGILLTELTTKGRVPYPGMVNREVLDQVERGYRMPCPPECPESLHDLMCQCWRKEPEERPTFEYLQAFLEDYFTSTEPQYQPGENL
Sequence of Receptor tyrosine-protein kinase erbB-4 (Q15303 whole entry): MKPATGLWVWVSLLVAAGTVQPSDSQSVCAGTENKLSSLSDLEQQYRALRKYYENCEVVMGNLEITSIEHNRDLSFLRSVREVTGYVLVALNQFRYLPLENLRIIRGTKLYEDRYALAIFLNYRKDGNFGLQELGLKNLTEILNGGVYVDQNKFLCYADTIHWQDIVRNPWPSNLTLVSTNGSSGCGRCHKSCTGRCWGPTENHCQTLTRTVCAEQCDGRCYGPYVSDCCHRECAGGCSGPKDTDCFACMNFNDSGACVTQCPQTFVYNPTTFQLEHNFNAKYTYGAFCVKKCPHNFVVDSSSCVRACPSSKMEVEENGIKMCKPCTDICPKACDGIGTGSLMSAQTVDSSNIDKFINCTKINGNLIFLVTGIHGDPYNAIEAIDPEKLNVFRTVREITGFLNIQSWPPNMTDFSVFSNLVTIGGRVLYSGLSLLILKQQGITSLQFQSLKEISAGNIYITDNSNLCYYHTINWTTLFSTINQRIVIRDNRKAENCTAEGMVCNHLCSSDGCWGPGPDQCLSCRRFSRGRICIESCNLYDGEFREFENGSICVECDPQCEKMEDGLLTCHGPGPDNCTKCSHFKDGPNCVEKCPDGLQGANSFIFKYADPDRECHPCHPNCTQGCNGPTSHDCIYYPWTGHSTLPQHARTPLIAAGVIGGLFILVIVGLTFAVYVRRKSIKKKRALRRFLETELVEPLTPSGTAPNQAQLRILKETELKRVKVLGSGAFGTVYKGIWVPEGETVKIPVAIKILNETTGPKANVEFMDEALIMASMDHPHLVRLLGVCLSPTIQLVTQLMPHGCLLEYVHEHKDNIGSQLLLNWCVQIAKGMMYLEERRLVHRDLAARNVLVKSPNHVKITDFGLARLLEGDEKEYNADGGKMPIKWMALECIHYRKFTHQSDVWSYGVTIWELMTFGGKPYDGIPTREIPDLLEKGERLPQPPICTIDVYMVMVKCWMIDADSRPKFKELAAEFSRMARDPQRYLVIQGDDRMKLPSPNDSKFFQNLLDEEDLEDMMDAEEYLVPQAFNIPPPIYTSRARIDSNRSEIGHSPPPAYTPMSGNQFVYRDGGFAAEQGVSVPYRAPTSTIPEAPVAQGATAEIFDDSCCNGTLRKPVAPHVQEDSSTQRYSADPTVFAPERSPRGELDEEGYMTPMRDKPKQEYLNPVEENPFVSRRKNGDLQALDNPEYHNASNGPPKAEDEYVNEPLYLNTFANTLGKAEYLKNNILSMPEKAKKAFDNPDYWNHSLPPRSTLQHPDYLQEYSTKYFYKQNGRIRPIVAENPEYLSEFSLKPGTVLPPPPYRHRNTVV
Sequence of Tyrosine-protein kinase Lyn (P07948 whole entry): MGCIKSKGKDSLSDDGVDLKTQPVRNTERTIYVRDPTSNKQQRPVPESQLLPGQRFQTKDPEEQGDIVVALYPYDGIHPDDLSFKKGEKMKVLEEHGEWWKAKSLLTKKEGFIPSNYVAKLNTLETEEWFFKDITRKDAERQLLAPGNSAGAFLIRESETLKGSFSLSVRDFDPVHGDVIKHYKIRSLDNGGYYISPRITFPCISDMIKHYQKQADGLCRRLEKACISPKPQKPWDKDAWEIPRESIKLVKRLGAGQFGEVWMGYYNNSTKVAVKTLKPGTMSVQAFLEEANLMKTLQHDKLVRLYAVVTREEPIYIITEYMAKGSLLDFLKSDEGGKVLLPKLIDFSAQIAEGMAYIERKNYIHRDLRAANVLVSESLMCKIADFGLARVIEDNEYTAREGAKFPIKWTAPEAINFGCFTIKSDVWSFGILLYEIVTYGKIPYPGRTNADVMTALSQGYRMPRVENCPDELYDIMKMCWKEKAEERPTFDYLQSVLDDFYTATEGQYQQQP
T1 sequence (Q06187 whole entry): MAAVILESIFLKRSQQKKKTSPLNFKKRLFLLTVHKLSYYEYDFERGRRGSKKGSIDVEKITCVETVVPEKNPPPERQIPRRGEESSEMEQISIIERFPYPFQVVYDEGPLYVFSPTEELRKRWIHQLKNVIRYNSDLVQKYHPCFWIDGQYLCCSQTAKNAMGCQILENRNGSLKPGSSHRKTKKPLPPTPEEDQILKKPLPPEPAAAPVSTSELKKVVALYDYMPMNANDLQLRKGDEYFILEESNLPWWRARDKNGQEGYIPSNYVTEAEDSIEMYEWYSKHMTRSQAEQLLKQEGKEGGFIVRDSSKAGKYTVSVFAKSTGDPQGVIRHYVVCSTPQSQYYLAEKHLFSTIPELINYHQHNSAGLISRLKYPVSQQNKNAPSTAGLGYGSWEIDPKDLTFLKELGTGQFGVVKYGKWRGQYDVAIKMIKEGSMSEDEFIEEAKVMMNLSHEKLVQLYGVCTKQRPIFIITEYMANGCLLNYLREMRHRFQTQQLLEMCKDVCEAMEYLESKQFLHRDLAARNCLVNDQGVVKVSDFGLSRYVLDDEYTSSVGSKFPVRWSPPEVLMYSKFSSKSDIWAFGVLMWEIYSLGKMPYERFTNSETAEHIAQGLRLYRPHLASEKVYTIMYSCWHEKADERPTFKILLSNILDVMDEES
Sequence of Tyrosine-protein kinase Blk (P51451 whole entry): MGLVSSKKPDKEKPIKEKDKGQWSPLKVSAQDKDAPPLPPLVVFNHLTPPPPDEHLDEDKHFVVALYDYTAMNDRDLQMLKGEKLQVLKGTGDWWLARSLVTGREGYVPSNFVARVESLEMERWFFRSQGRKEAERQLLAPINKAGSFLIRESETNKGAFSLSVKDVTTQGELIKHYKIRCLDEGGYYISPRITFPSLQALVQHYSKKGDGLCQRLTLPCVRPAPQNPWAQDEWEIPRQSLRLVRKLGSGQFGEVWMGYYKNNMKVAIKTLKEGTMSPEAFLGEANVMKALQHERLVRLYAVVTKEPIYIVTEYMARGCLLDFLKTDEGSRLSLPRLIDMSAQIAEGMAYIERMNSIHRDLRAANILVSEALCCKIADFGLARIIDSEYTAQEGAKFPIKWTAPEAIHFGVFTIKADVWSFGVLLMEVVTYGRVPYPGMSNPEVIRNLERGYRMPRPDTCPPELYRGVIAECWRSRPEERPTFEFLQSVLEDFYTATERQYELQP
Sequence of Tyrosine-protein kinase CSK (P41240 whole entry): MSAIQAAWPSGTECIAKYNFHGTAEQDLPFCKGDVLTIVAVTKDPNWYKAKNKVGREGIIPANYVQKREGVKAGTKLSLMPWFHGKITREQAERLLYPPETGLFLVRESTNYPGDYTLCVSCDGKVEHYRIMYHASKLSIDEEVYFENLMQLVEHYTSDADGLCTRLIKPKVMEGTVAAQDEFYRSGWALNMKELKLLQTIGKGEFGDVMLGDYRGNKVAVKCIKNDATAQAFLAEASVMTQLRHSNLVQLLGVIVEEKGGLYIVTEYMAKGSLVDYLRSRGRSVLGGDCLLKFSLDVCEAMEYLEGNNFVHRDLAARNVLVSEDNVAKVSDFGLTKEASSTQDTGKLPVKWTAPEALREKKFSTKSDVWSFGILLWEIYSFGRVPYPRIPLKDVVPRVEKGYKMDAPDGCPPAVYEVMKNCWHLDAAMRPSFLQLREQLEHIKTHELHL
Sequence of Tyrosine-protein kinase Fyn (P06241 whole entry): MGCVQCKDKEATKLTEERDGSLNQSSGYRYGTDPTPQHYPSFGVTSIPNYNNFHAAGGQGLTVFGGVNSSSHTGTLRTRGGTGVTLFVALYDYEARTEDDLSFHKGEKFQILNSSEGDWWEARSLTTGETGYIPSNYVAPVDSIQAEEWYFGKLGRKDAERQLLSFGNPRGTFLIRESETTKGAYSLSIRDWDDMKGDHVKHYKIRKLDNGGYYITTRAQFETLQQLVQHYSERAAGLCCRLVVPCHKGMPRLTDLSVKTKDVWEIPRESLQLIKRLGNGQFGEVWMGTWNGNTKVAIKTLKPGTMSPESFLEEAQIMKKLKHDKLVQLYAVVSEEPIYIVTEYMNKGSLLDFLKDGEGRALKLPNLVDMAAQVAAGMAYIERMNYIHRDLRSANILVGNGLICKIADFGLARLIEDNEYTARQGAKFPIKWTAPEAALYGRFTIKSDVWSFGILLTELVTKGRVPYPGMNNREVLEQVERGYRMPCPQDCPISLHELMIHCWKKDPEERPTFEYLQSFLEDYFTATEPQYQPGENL
Sequence of Tyrosine-protein kinase Fgr (P09769 whole entry): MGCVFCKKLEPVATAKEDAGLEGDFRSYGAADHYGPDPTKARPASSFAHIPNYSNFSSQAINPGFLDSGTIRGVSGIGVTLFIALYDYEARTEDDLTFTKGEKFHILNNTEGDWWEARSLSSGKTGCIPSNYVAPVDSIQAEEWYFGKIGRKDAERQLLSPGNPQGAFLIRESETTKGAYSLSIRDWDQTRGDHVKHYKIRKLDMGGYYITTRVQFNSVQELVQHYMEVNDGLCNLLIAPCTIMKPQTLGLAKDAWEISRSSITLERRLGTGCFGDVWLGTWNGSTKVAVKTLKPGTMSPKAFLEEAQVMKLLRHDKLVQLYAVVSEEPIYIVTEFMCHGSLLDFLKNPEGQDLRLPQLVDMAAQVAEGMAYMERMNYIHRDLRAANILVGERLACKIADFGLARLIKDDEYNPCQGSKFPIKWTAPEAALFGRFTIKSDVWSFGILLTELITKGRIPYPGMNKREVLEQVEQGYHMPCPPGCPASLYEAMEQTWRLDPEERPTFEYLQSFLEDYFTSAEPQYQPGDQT

In turn, `CC1(C)OC(=O)N2C[C@H](c3nc(-c4ccc(C(=O)Nc5cc(C(F)(F)F)ccn5)cc4)c4c(N)nccn34)CC[C@H]21` gave a F in series [1] (5 mg/kg) of 160%. In addition, the negative-log IC50 (pIC50) in [2] was 7.24; in [3], 6.67; in series [4] it was 7.77; in series [5], 9.92; in series [11], 7.64; in series [12], 6.46. The figures for the pIC50 in series [14], in series [18] and in series [19] were 7.16, 7.47 and 7.10, respectively. In addition, the Ratio IC50 amounted to 283 in the series listed under Homo sapiens [6]; 220 in the series listed under Homo sapiens [7]; 300 in the series listed under Homo sapiens [8]; 140 in the series filed under Homo sapiens [9]; 660 in the series listed under Homo sapiens [10]; 125 in the series listed under Homo sapiens [13]. For the same molecule, the Ratio IC50 in the series filed under Homo sapiens [16] is 190. For the same molecule, the highest level in series [15] (Cmax) was 1000 nM. Besides, the clearance in [17] worked out at 26 mL/min/kg.

`Nc1nccn2c([C@@H]3CC[C@H]4COC(=O)N4C3)nc(-c3ccc(C(=O)Nc4cc(C(F)(F)F)ccn4)cc3)c12`: in series [1], the bioavailability was found to be 3.6%. Besides, the pIC50 in series [2] is 7.44; in series [3], 7.74; in [4], 7.66; in [5] it was 10.08; in [11], 7.47; in series [12], 6.54. Further, the pIC50 is 7.04 in series [14], 7.59 in series [18] and 7.31 in series [19]. For the same molecule, the Ratio IC50 in the series filed under Homo sapiens [6] was 313; in the series listed under Homo sapiens [7] it was 1110; in the series filed under Homo sapiens [8], 554; in the series filed under Homo sapiens [9], 265; in the series filed under Homo sapiens [10] it was 590; in the series listed under Homo sapiens [13], 554. The Ratio IC50 in the series filed under Homo sapiens [16] was 410. The molecule also had a Cmax in series [15] of 340 nM. The clearance in [17] is 17 mL/min/kg.

In the case of `Nc1nccn2c([C@@H]3CC[C@H]4CCC(=O)N4C3)nc(-c3ccc(C(=O)Nc4cc(C(F)(F)F)ccn4)cc3)c12`, in [20], the half-life was 3.6 h. For the same molecule, the Vd in series [21] was found to be 1.5 L/kg. Also, the bioavailability in series [1] was 46%; in [23] it was 100%. In addition, the Tmax in series [22] was determined as 1 h. Also, the pIC50 was 7.62 in [2]; 7.06 in series [3]; 8.08 in series [4]; 7.62 in [11]; 6.79 in series [12]; 7.48 in series [14]. In series [19], this molecule showed a pIC50 of 7.70. Further, the Cmax in [24] is 1700 nM; in [15], 1300 nM. The Ratio IC50 was found to be 630 in the series listed under Homo sapiens [7]; 340 in the series filed under Homo sapiens [8]; 83 in the series filed under Homo sapiens [9]; 200 in the series listed under Homo sapiens [10]; 330 in the series filed under Homo sapiens [13]; 240 in the series filed under Homo sapiens [16]. Further, in [25], the AUC came to 2.8 µM·h. In addition, the figures for the clearance in [26] and in [17] were 11 mL/min/kg and 8 mL/min/kg, respectively. The Activity entry in the series on Rattus norvegicus is “Dose-dependent effect”.
